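Protocol summary: plate cells (96-well), add compound at 5 concentrations, incubate 48 h, interpolate endpoints linearly. Definition used: TGI = concentration required for complete inhibition of growth.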
Tests used:
Assay in all cases: NCI anticancer screen, dose series, 48 h
[1] = tested on: 786-0 renal
[2] = tested on: A498 renal
[3] = tested on: A549 NSCLC
[4] = tested on: ACHN renal
[5] = tested on: CAKI-1 renal
[6] = tested on: CCRF-CEM leukemia
[7] = tested on: COLO 205 colon
[8] = tested on: DLD-1 colon
[9] = tested on: DMS 114 small cell lung
[10] = tested on: EKVX NSCLC
[11] = tested on: HCC-2998 colon
[12] = tested on: HCT-116 colon
[13] = tested on: HL-60(TB) leukemia
[14] = tested on: HOP-62 NSCLC
[15] = tested on: HOP-92 NSCLC
[16] = tested on: HT29 colon
[17] = tested on: IGROV1 ovarian
[18] = tested on: K-562 leukemia
[19] = tested on: KM12 colon
[20] = tested on: KM20L2 colon
[21] = tested on: LOX IMVI melanoma
[22] = tested on: LXFL 529 NSCLC
[23] = tested on: M14 melanoma
[24] = tested on: M19-MEL melanoma
[25] = tested on: MALME-3M melanoma
[26] = tested on: MOLT-4 leukemia
[27] = tested on: NCI-H226 lung
[28] = tested on: NCI-H23 lung
[29] = tested on: NCI-H460 lung
[30] = tested on: NCI-H522 lung
[31] = tested on: OVCAR-3 ovarian
[32] = tested on: OVCAR-4 ovarian
[33] = tested on: OVCAR-5 ovarian
[34] = tested on: OVCAR-8 ovarian
[35] = tested on: RPMI-8226 leukemia
[36] = tested on: RXF 393 renal
[37] = tested on: SF-268 CNS
[38] = tested on: SF-295 CNS
[39] = tested on: SF-539 CNS
[40] = tested on: SK-MEL-2 melanoma
[41] = tested on: SK-MEL-28 melanoma
[42] = tested on: SK-MEL-5 melanoma
[43] = tested on: SK-OV-3 ovarian
[44] = tested on: SN12C renal
[45] = tested on: SNB-19 CNS
[46] = tested on: SNB-75 CNS
[47] = tested on: SNB-78 CNS
[48] = tested on: SW-620 colon
[49] = tested on: TK-10 renal
[50] = tested on: U251 CNS
[51] = tested on: UACC-257 melanoma
[52] = tested on: UO-31 renal
[53] = tested on: BT-549 breast
[54] = tested on: DU-145 prostate
[55] = tested on: HCT-15 colon
[56] = tested on: HS 578T breast
[57] = tested on: MCF7 breast
[58] = tested on: MDA-MB-231 breast
[59] = tested on: MDA-MB-435
[60] = tested on: MDA-N
[61] = tested on: NCI/ADR-RES ovarian
[62] = tested on: PC-3 prostate
[63] = tested on: SR leukemia
[64] = tested on: T-47D breast
[65] = tested on: UACC-62 melanoma

Compound: CC1=C(C(=O)Nc2cc(F)c(F)cc2F)C(c2ccc([N+](=O)[O-])cc2)C(C(=O)Nc2cc(F)c(F)cc2F)=C(C)N1
- TGI [1]: > 100 µM
- TGI [2]: 87.1 µM
- TGI [3]: > 100 µM
- TGI [4]: > 100 µM
- TGI [5]: > 100 µM
- TGI [6]: 78.7 µM
- TGI [7]: > 100 µM
- TGI [8]: > 100 µM
- TGI [9]: > 100 µM
- TGI [10]: > 100 µM
- TGI [11]: 60.5 µM
- TGI [12]: > 100 µM
- TGI [13]: 35.7 µM
- TGI [14]: > 100 µM
- TGI [15]: 42.2 µM
- TGI [16]: > 100 µM
- TGI [17]: > 100 µM
- TGI [18]: > 100 µM
- TGI [19]: > 100 µM
- TGI [20]: > 100 µM
- TGI [21]: > 100 µM
- TGI [22]: > 100 µM
- TGI [23]: > 100 µM
- TGI [24]: > 100 µM
- TGI [25]: > 100 µM
- TGI [26]: > 100 µM
- TGI [27]: > 100 µM
- TGI [28]: > 100 µM
- TGI [29]: > 100 µM
- TGI [30]: 55.6 µM
- TGI [31]: 80.8 µM
- TGI [32]: > 100 µM
- TGI [33]: > 100 µM
- TGI [34]: > 100 µM
- TGI [35]: 45.1 µM
- TGI [36]: 63.2 µM
- TGI [37]: > 100 µM
- TGI [38]: > 100 µM
- TGI [39]: > 100 µM
- TGI [40]: > 100 µM
- TGI [41]: > 100 µM
- TGI [42]: > 100 µM
- TGI [43]: > 100 µM
- TGI [44]: > 100 µM
- TGI [45]: > 100 µM
- TGI [46]: 63 µM
- TGI [47]: > 100 µM
- TGI [48]: > 100 µM
- TGI [49]: 95.1 µM
- TGI [50]: > 100 µM
- TGI [51]: > 100 µM
- TGI [52]: 70.6 µM

Compound: CCN(CC)c1ccc(/C=C/C=C2C(=O)NC(=S)NC2=O)cc1
- TGI [1]: > 100 µM
- TGI [2]: > 100 µM
- TGI [3]: > 100 µM
- TGI [4]: > 100 µM
- TGI [53]: > 75.4 µM
- TGI [5]: > 100 µM
- TGI [6]: > 100 µM
- TGI [7]: > 100 µM
- TGI [54]: > 100 µM
- TGI [10]: > 100 µM
- TGI [11]: > 100 µM
- TGI [12]: > 100 µM
- TGI [55]: > 100 µM
- TGI [13]: 11 µM
- TGI [14]: 47.9 µM
- TGI [15]: > 100 µM
- TGI [56]: > 53.7 µM
- TGI [16]: > 100 µM
- TGI [17]: > 100 µM
- TGI [18]: > 75.1 µM
- TGI [19]: > 100 µM
- TGI [21]: > 100 µM
- TGI [23]: > 100 µM
- TGI [25]: > 100 µM
- TGI [57]: > 100 µM
- TGI [58]: > 78.6 µM
- TGI [59]: 34.7 µM
- TGI [60]: > 61.6 µM
- TGI [26]: > 100 µM
- TGI [27]: 99 µM
- TGI [28]: > 100 µM
- TGI [29]: > 100 µM
- TGI [61]: 41.8 µM
- TGI [31]: > 72.6 µM
- TGI [32]: > 100 µM
- TGI [33]: > 100 µM
- TGI [34]: 42.4 µM
- TGI [62]: > 100 µM
- TGI [35]: > 100 µM
- TGI [36]: 45.2 µM
- TGI [37]: > 100 µM
- TGI [38]: > 100 µM
- TGI [39]: 36.6 µM
- TGI [40]: > 100 µM
- TGI [41]: > 100 µM
- TGI [42]: > 100 µM
- TGI [43]: > 100 µM
- TGI [44]: > 100 µM
- TGI [45]: > 100 µM
- TGI [46]: > 100 µM
- TGI [63]: > 100 µM
- TGI [48]: > 100 µM
- TGI [64]: > 100 µM
- TGI [49]: > 100 µM
- TGI [50]: > 80.8 µM
- TGI [51]: > 100 µM
- TGI [65]: > 100 µM
- TGI [52]: > 100 µM

Compound: O=C1c2cn[nH]c2C(c2ccccc2)N1c1ccccc1 (stereo not drawn)
- TGI [1]: > 10 µM
- TGI [2]: > 10 µM
- TGI [3]: > 10 µM
- TGI [4]: > 10 µM
- TGI [53]: > 10 µM
- TGI [5]: > 10 µM
- TGI [6]: > 10 µM
- TGI [7]: > 10 µM
- TGI [54]: > 10 µM
- TGI [10]: > 10 µM
- TGI [11]: > 10 µM
- TGI [12]: > 10 µM
- TGI [55]: > 10 µM
- TGI [13]: > 10 µM
- TGI [14]: > 10 µM
- TGI [15]: > 10 µM
- TGI [56]: > 10 µM
- TGI [16]: > 10 µM
- TGI [17]: > 10 µM
- TGI [19]: > 10 µM
- TGI [21]: > 10 µM
- TGI [23]: > 10 µM
- TGI [25]: > 10 µM
- TGI [57]: > 10 µM
- TGI [58]: > 10 µM
- TGI [59]: > 10 µM
- TGI [60]: > 10 µM
- TGI [26]: > 10 µM
- TGI [27]: > 10 µM
- TGI [28]: > 10 µM
- TGI [29]: > 10 µM
- TGI [30]: > 10 µM
- TGI [61]: > 10 µM
- TGI [31]: > 10 µM
- TGI [32]: > 10 µM
- TGI [33]: > 10 µM
- TGI [34]: > 10 µM
- TGI [62]: > 10 µM
- TGI [35]: > 10 µM
- TGI [36]: > 10 µM
- TGI [37]: > 10 µM
- TGI [38]: > 10 µM
- TGI [39]: > 10 µM
- TGI [40]: > 10 µM
- TGI [41]: > 10 µM
- TGI [42]: > 10 µM
- TGI [43]: > 10 µM
- TGI [44]: > 10 µM
- TGI [45]: > 10 µM
- TGI [46]: > 10 µM
- TGI [63]: > 10 µM
- TGI [48]: > 10 µM
- TGI [64]: > 10 µM
- TGI [49]: > 10 µM
- TGI [50]: > 10 µM
- TGI [51]: > 10 µM
- TGI [65]: > 10 µM
- TGI [52]: > 10 µM

From PubChem BioAssay (NCI)
